Data on five compounds can be found in ChEMBL document CHEMBL5729684, “Pharmaceutical compounds” (2023).

A word on the EC50: it is the concentration at which the effect is half-maximal.

A short description of this assay: Plaque Reduction Assay: Hep-G2 cells (ECACC, 85011430) were passaged in flasks and seeded in 24-well plates in DMEM containing antibiotics and supplemented with 10% FBS. During inoculation and subsequent incubation, cells were cultured in DMEM containing 2% FBS. 100 plaque forming unit/well of RSV (RSV A2 ECACC, 0709161v) was mixed with eight serial dilutions of compound. Subsequently, 100 μL of the virus/compound mixtures was added to confluent Hep-G2 cell monolayers. The cells and virus/compound mixtures were incubated at 37° C. in a humidified 5% CO2 incubator for 2 h prior to removal of the inoculum and addition of 1 mL of overlay (DMEM containing 2% FBS and 0.8% CMC) containing compound dilutions. The cells and were incubated at 37° C. in a humidified 5% CO2 incubator for 2 days.Cells were washed with PBS before adding 75/25% […] EtOH/MeOH, for 3 min. Fixative was removed and plates were washed with PBS. A pre-titrated amount of the primary antibody was added in 200 μL PBS/2% milk powder, and plates incubated for 90 min at 37° C. The plates were washed 3 times with PBS/0.05% Tween20 before addition of rabbit anti-goat horse radish peroxidase in 200 μL PBS/2% milk powder, and incubated for 1 h at 37° C. Following three wash steps with PBS/0.05% Tween20, 200 μL ready-to-use TrueBlue was added and plates were incubated at rt for 10-15 min before washing with water. After removal of water, plates were air-dried in the dark.Plates were scanned and analysed using the Immunospot S6 Macro analyser, which is equipped with BioSpot analysis software for counting immunostained plaques (virospots). Plaque counts were used to calculate % c infection relative to the mean of the plaque count in the virus control wells for RSV. The EC50 value was calculated as 50% reduction in signal, respectively, by interpolation of inhibition curves fitted with a 4-parameter nonlinear regression with a variable slope in Dotmatics. The note with it: HepG2.
`Cc1cc(NC(C)C)ncc1-c1nn2cccnc2c1C(=O)N[C@H]1N=C(c2ccccc2)c2cccc(F)c2NC1=O`: the 50% effective concentration (EC50) was 74 nM. For `Cc1nc(NC(C)C)ccc1-c1nn2cccnc2c1C(=O)N[C@H]1N=C(c2ccccc2)c2cccc(F)c2NC1=O`, the 50% effective concentration (EC50) is 25 nM. As for `O=C(N[C@H]1N=C(c2ccccc2)c2cccc(F)c2NC1=O)c1c(-c2ccccc2)nn2cccnc12`, the figure is 90 nM; as for `Cc1ccnc2c(C(=O)N[C@H]3N=C(c4ccccc4)c4cccc(F)c4NC3=O)c(-c3ccccc3F)nn12`, 27 nM; as for `Cc1nc(NC(C)C)ccc1-c1nn2cccnc2c1C(=O)N[C@H]1N=C(c2ccccc2)c2ccccc2NC1=O`, 41 nM.
